# Measurements: US20230062100A1, “SUBSTITUTED AMINOQUINOLONES AS DGKALPHA INHIBITORS FOR IMMUNE ACTIVATION” (Bayer Aktiengesellschaft, priority 2019, published 2023)
# Test system: GBM tumors
# Assay: not given
# Conditions: concurrent administration; literature report; cited from earlier work
row,Structure (SMILES),growth of intracranially injected GBM tumors
1,Cc1nc2sccn2c(=O)c1CCN1CCC(=C(c2ccccc2)c2ccc(F)cc2)CC1 [Example R59022],decreased growth

# Biological target: T1, DGKα (Homo sapiens, UniProt P23743)
# Assay: not given
# Conditions: literature report; cited from earlier work
# Target sequence in this assay (P23743 whole entry, species assumed): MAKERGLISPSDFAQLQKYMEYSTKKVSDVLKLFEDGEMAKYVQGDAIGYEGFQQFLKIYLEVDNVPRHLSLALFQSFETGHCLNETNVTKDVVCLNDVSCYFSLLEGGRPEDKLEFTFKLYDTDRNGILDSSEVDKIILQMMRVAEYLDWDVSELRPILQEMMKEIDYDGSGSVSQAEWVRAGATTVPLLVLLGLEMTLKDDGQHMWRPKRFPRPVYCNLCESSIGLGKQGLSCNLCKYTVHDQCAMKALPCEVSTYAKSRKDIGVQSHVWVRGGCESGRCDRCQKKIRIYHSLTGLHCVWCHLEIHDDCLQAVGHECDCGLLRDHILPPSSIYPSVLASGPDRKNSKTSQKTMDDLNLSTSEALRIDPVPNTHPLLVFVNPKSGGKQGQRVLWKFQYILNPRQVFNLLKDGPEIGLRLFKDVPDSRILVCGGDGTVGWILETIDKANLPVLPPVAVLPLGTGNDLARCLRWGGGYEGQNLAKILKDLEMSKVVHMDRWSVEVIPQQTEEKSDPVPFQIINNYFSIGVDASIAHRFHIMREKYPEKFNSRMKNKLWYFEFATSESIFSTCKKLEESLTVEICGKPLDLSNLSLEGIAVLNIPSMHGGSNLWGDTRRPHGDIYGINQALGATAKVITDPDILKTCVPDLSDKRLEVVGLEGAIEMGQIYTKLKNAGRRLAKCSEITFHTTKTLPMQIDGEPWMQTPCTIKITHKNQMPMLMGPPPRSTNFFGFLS
row,Structure (SMILES),inhibitory activity on DGKα
1,O=C1/C(=C\C=C\c2ccco2)SC(=S)N1NS(=O)(=O)c1ccccc1 [CU-3],sub-micromolar
2,Cc1ccc2c(C(=O)CN3CCN(C(=O)c4ccco4)CC3)c(C)[nH]c2c1 [AMB639752],micromolar
3,Cc1nc2sccn2c(=O)c1CCN1CCC(=C(c2ccc(F)cc2)c2ccc(F)cc2)CC1 [Ritanserin],comparable activity

# Biological target: T1, DGKα
# Assay: Human DGKα kinase activity inhibition assay (ADP-Glo)
# Format: biochemical
# Conditions: in vitro human DGKα kinase activity inhibition assay
# How it was run: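 C-terminally FLAG-tagged full-length human DGKα from baculovirus/insect cells (typically ~0.1 nM) phosphorylated 1,2-dioleoyl-sn-glycerol in octyl-β-D-glucopyranoside micelles in MOPS pH 7.4. ADP formed was quantified by ADP-Glo luminescence after 1 h ATP depletion at 22 °C.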
# Target sequence in this assay (P23743 with tags, fused parts or gaps): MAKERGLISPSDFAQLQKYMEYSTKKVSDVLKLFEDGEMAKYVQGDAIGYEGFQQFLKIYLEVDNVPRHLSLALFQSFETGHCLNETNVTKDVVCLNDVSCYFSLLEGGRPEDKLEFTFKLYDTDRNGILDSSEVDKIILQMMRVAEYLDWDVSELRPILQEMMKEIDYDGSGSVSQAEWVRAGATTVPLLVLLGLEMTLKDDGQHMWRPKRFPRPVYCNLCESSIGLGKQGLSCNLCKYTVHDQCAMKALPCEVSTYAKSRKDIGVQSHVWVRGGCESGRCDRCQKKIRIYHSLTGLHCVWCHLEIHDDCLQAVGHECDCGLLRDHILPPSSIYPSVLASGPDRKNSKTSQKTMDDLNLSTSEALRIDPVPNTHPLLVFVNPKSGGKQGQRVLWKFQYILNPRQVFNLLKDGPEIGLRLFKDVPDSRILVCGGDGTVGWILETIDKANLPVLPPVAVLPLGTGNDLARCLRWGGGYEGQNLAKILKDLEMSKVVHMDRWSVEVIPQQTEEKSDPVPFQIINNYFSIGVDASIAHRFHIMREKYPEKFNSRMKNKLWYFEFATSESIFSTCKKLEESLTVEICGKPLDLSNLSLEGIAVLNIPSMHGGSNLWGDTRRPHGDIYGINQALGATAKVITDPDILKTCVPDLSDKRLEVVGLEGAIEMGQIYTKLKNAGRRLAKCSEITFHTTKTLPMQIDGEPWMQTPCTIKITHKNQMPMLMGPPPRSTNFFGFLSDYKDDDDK
row,Structure (SMILES),IC50 [nM]
1,"Cn1c(=O)c(C#N)c(N2CCC(Oc3ccc(C(F)(F)F)cc3)CC2)c2ccc(Br)cc21 [Example 59, 7-bromo-1-methyl-2-oxo-4-{4-[4-(trifluoromethyl)phenoxy]piperidin-1-yl}-1,2-dihydroquinoline-3-carbonitrile]",18
2,"Cn1c(=O)c(C#N)c(N2CCC(Oc3ccccc3C(F)(F)F)CC2)c2ccccc21 [Example 36, 1-methyl-2-oxo-4-{4-[2-(trifluoromethyl)phenoxy]piperidin-1-yl}-1,2-dihydroquinoline-3-carbonitrile]",164
3,"Cn1c(=O)c(C#N)c(N2CCC(Oc3ccc(Cl)cc3)CC2)c2ccc(Br)cc21 [Example 57, 7-bromo-4-[4-(4-chlorophenoxy)piperidin-1-yl]-1-methyl-2-oxo-1,2-dihydroquinoline-3-carbonitrile]",17
4,"Cn1c(=O)c(C(N)=O)c(N2CCC(Oc3ccc(OC(F)F)cc3)CC2)c2ccccc21 [Example 52, 4-{4-[4-(difluoromethoxy)phenoxy]piperidin-1-yl}-1-methyl-2-oxo-1,2-dihydroquinoline-3-carboxamide]",3.8
5,"Cn1c(=O)c(C#N)c(N2CCC(Oc3ccccc3C#N)CC2)c2ccccc21 [Example 34, 4-[4-(2-cyanophenoxy)piperidin-1-yl]-1-methyl-2-oxo-1,2-dihydroquinoline-3-carbonitrile]",9
6,"Cn1c(=O)c(C#N)c(N2CCCC(Oc3ccc(N4CCC4)cc3)CC2)c2ccccc21 (racemic) [Example 104, (rac)-4-{4-[4-(azetidin-1-yl)phenoxy]azepan-1-yl}-1-methyl-2-oxo-1,2-dihydroquinoline-3-carbonitrile]",40

# Other lines, results leading:
row,IC50 [nM],Structure (SMILES)
1,7,"COc1ccc2c(c1)c(N1CCC(Oc3ccc(OC(F)(F)F)cc3)CC1)c(C#N)c(=O)n2C [Example 156, 6-methoxy-1-methyl-2-oxo-4-{4-[4-(trifluoromethoxy)phenoxy]piperidin-1-yl}-1,2-dihydroquinoline-3-carbonitrile]"
2,12,"COc1cccc(OC2CCN(c3c(C(N)=O)c(=O)n(C)c4ccc(C)cc34)CC2)c1 [Example 159, 4-[4-(3-methoxyphenoxy)piperidin-1-yl]-1,6-dimethyl-2-oxo-1,2-dihydroquinoline-3-carboxamide]"
3,2.5,"Cn1c(=O)c(C#N)c(N2CCC(Oc3ccc(OC(F)(F)F)cc3)CC2)c2cc(Br)ccc21 [Example 139, 6-bromo-1-methyl-2-oxo-4-{4-[4-(trifluoromethoxy)phenoxy]piperidin-1-yl}-1,2-dihydroquinoline-3-carbonitrile]"
4,14,"Cn1c(=O)c(C(N)=O)c(N2CCC(OCc3ccccc3F)CC2)c2ccccc21 [Example 126, 4-{4-[(2-fluorophenyl)methoxy]piperidin-1-yl}-1-methyl-2-oxo-1,2-dihydroquinoline-3-carboxamide]"
